Data on six molecules can be found in publication PMC2813745, “A novel inhibitor of the PI3K/Akt pathway based on the structure of inositol 1,3,4,5,6-pentakisphosphate” (British Journal of Cancer, 2010).

The target of the first assay is T1, PDK1 (Homo sapiens, UniProt O15530).
T1 sequence (O15530 1-556): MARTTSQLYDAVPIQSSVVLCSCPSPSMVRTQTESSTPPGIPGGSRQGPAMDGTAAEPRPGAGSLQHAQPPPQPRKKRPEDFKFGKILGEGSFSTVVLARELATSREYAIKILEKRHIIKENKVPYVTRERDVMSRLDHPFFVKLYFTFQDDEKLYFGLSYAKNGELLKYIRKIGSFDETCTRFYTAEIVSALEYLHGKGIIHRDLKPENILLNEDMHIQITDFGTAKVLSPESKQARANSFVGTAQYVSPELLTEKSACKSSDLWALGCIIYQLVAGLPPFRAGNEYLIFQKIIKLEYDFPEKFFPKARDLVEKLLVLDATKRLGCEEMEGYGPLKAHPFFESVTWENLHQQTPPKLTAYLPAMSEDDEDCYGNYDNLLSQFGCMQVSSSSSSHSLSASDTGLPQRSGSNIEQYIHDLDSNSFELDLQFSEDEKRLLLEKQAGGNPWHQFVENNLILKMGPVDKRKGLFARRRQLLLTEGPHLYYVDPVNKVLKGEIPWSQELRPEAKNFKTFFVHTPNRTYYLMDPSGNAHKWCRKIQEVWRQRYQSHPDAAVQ
Put plainly: SelectScreen kinase profiling: PDK1. The assay is classed as biochemical. The following applies: 1 µM compound; [ATP] 100 µM; single point. The protocol: Effect of the indicated compounds on the activity of various kinases was assessed by SelectScreen Kinase Profiling Service (Invitrogen-Life Technologies, Paisley, UK). Assays were performed using 1 μM of the tested compounds and ATP concentration as indicated in the corresponding tables. In the case of […] a screen using 10 μM of the compound was also carried out, as indicated in the corresponding table.
As to `O=P(O)(O)O[C@H]1[C@H](OP(=O)(O)O)[C@@H](OP(=O)(O)O)[C@H](OP(=O)(O)O)[C@@H](OP(=O)(O)O)[C@H]1OP(=O)(O)O` [Ins(1,2,3,4,5,6)P6], the “% Inhibition Mean” value turned out to be 18%.
`O=P(O)(O)O[C@H]1[C@H](O)[C@@H](OP(=O)(O)O)[C@H](OP(=O)(O)O)[C@@H](OP(=O)(O)O)[C@H]1O` [Ins(1,3,4,5)P4]: the “% Inhibition Mean” value turned out to be 56%.
Still for that read-out and setting: with `O=P(O)(O)O[C@@H]1[C@H](O)[C@H](O)[C@@H](OP(=O)(O)O)[C@H](OP(=O)(O)O)[C@H]1O` [Ins(1,4,5)P3] the figure was 17%; with `O=P(O)(O)O[C@H]1[C@H](OP(=O)(O)O)[C@@H](OP(=O)(O)O)[C@@H](O)[C@@H](O)[C@@H]1OP(=O)(O)O` [Ins(1,4,5,6)P4], 33%; with `O=P(O)(O)O[C@H]1[C@H](OP(=O)(O)O)[C@@H](OP(=O)(O)O)[C@@H](O)[C@@H](O)[C@@H]1OP(=O)(O)O` [Ins(3,4,5,6)P4], 35%.

The next assay relates to MCF7. Put plainly: Cell survival by cell counting, MCF7. The format is cell-based, human. As to conditions: MCF7, 72 h, 20 nM 4-OH Tamoxifen, 50 μM 2-O-Bn-InsP5 alone or in combination. On the procedure:
Cells seeded in a 24-well plate were treated with the indicated compounds in serum free DMEM or DMEM containing 0.5% FBS (PC3). After 72 h, the number of surviving cells was assessed by manual cell counting or by using the cell counter CDA-500 (Sysmex, Milton Keynes, UK). Alternatively, after 48 h, the number of apoptotic cells was assessed by acridine orange/ethidium bromide assay as described ([Piccolo et al, 2004]; [Maffucci et al, 2005]). SRB test was carried out in SKOV-3 and PC3 seeded in 96-well plate (3800 cells per well or 5800 cells per well, respectively) after 72 h of treatment as described ([Cappella et al, 2001]).
Data are mean±s.e. of n=4 independent experiments carried out in duplicate. […] Data are mean±s.e. of n=5 independent experiments carried out in duplicate. […] Data are mean±s.e. of n=6 independent experiments carried out in duplicate. […] Data are mean±s.e. of n=2 independent experiments carried out in duplicate. In all cases (A–D), cells were treated for 72 h and the number of surviving cells was assessed by cell counting. […] In all cases (E, F), cells were treated for 72 h and the number of surviving cells was assessed by SRB assay and data are mean±s.e. of two experiments carried out in quadruplicate.
On to “4-hydroxy-tamoxifen [4-OH tamoxifen, reference compound]”, for which the “number of surviving cells” value is “reduced the number of surviving cells”.
